From US10669283B2, “Compound and pharmacologically acceptable salt thereof” (MEIJI SEIKA PHARMA CO., LTD., priority 2016, dated 2020)
Like-named read-outs stand apart in the source and are kept apart here.

Assays:
[1] = Hepatic metabolic stability (rat liver microsome method); format: in vitro ADME; settings: rat liver microsomes 0.5 mg/mL, test substance 1 μM, NADPH 1 mM, 37° C., 30 minutes
Outline: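 Test compound (1 μM) preincubated with rat liver microsomes (0.5 mg/mL) in 100 mM potassium phosphate pH 7.4 at 37° C; NADPH (1 mM) started reaction, acetonitrile stopped it at 0 and 30 min. LC-MS quantitation; % remaining = 30-min/0-min ×100, graded A ≥75%, B 60–<75%, C 45–<60%, D <45%.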

PDE4 = PDE4 inhibition, scintillation proximity assay (SPA); format: biochemical;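 for PDE4 Inhibitory Activity (concentration for the inhibition rate of 50%): A below 100 nM B 100 to below 1000 nM C 1000 nM or more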
Outline: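 Scintillation proximity read-out: [2,8-3H]-cAMP hydrolysis by PDE4 ran 120 min at room temperature in Tris-HCl pH 7.4 buffer with 8.3 mM MgCl2, 1.7 mM EGTA and 3 mg/mL BSA. Bead-bound product (YSi-SPA with ZnSO4, 15 min) counted; blank lacks enzyme, control has DMSO only.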

[2] = scintillation proximity assay, class symbols, read-out: PDE4 Inhibitory Activity
[3] = scintillation proximity assay (SPA), evaluated as classes A, B, C, read-out: PDE4 Inhibitory Activity (concentration for the inhibition rate of 50%)

Row | Compound | Residual ratio (% remaining for 30-minute reaction) [1] | IC50 (PDE4; [2]) [nM] | IC50 (PDE4; [3]) [nM]
1 | CC(C)(O)C(F)(F)Oc1ccc(-c2ccc(Cl)cn2)c2oc(N3CC4CC(C3)N4)nc12 [Example 363, 1-((2-(3,6-diazabicyclo [3.1.1]heptan-3-yl)-7-(5-chloropyridin-2-yl)benzo[d]oxazol-4-yl)oxy)-1,1-difluoro-2-methyl-propan-2-ol] | A (a % remaining rate of 75% or more) | < 100 | –
2 | CC(C)(O)C(F)(F)Oc1ccc(-n2nccn2)c2oc(N3CC4CCC(C3)N4)nc12 [Example 322, 1-((2-(3,8-Diazabicyclo[3.2.1]octan-3-yl)-7-(2H-1,2,3-triazol-2-yl)benzo[d]oxazol-4-yl)oxy)-1,1-difluoro-2-methylpropan-2-ol] | A (a % remaining rate of 75% or more) | – | < 100
3 | Cn1ccc(-c2ccc(OC(F)(F)C(C)(C)O)c3nc(N4CC5CCC(C4)N5)oc23)n1 [Example 328, 1-((2-(3,8-Diazabicyclo[3.2.1]octan-3-yl)-7-(1-methyl-1H-pyrazol-3-yl)benzo[d]oxazol-4-yl)oxy)-1,1-difluoro-2-methylpropan-2-ol] | A (a % remaining rate of 75% or more) | < 100 | –
4 | CC(O)C(F)(F)Oc1ccc(-c2nccs2)c2oc(N3CC4CC(C3)N4O)nc12 (single isomer, unassigned) [Example 373, 3-(4-(1,1-difluoro-2-hydroxypropoxy)-7-(thiazol-2-yl)benzo [d]oxazol-2-yl)-3,6-diazabicyclo[3.1.1] heptan-6-ol] | B (60% or more and less than 75%) | < 100 | –
5 | CC(O)C(F)(F)Oc1ccc(-c2nccs2)c2oc(N3CC4CC(C3)N4)nc12 (single isomer, unassigned) [Example 252, 1-((2-(3,6-Diazabicyclo[3.1.1]heptan-3-yl)-7-(thiazol-2-yl)benzo[d]oxazol-4-yl)oxy)-1,1-difluoropropan-2-ol] | A (a % remaining rate of 75% or more) | – | < 100
6 | OCC(F)(F)Oc1ccc(-c2nccs2)c2oc(N3CC4CCC(C3)N4)nc12 [Example 404, 2-((2-(3,8-diazabicyclo [3.2.1]octan-3-yl) 7-(thiazol-2-yl)benzo[d]oxazol-4-yl)oxy)-2,2-difluoroethan-1-ol] | B (60% or more and less than 75%) | < 100 | –
7 | FC(F)(F)Oc1c(Cl)cc(-c2cscn2)c2oc(N3CC4CCC(C3)N4)nc12 [Example 8, 2-(3,8-Diazabicyclo[3.2.1]octan-3-yl)-5-chloro-7-(thiazol-4-yl)-4-(trifluoromethoxy)benzo[d]oxazole] | A (a % remaining rate of 75% or more) | – | < 100
8 | O=C(N1CCOCC1)C(F)(F)Oc1ccc(-c2nccs2)c2oc(N3CC4CC(C3)N4)nc12 [Example 409, 2-((2-(3,6-diazabicyclo [3.1.1]heptan-3-yl)-7-(thiazol-2-yl)benzo[d]oxazol-4-yl)oxy)-2,2-difluoro-1-morpholino-ethan-1-one] | B (60% or more and less than 75%) | < 100 | –
9 | C[C@@H](O)COc1ccc(-c2nccs2)c2oc(N3CC4CC(C3)N4)nc12 [Example 259, (2R)-1-((2-(3,6-diazabicyclo[3.1.1]heptan-3-yl)-7-(thiazol-2-yl)benzo[d]oxazol-4-yl)oxy)propan-2-ol] | A (a % remaining rate of 75% or more) | – | < 100
10 | OCC(F)(F)Oc1ccc(-c2nccs2)c2oc(N3CC4CC(C3)N4)nc12 [Example 249, 2-((2-(3,6-Diazabicyclo[3.1.1]heptan-3-yl)-7-(thiazol-2-yl)benzo[d]oxazol-4-yl)oxy)-2,2-difluoroethan-1-ol] | B (60% or more and less than 75%) | – | < 100
11 | CC(C)(O)C(F)(F)Oc1ccc(-c2ncccn2)c2oc(N3CC4CCC(C3)N4)nc12 [Example 330, 1-((2-(3,8-diazabicyclo [3.2.1]octan-3-yl)-7-(pyrimidin-2-yl)benzo [d]oxazol-4-yl)oxy)-1,1-difluoro-2-methylpropan-2-ol] | A (a % remaining rate of 75% or more) | < 100 | –
12 | c1cc(-c2nccs2)c2oc(N3CC4CC(C3)N4)nc2c1 [Example 382, 2-(3,6-diaza-bicyclo[3.1.1]heptan-3-yl)-7-(thiazol-2-yl) benzo[d]oxazole] | B (60% or more and less than 75%) | < 100 | –
